The values below come from patent US6020366A, “Butyric acid matrix metalloproteinase inhibitors” (priority 1998, dated 2000).

Common to all, as to format: biochemical
In one assay the target is MMP-13 (Collagenase 3) (Homo sapiens, UniProt P45452). Nature of the assay: inhibition of MMP-13 hydrolysis of thiopeptolide substrate. The conditions noted are these: thiopeptolide substrate, pH 6.0, 22° C.; read-out: (IC50) MMP-13. An excerpt:
(§1) The invention compounds have been evaluated in standard in vitro assays and shown to be potent inhibitors of several matrix metalloproteinase enzymes.

A further assay addresses MMP-3 (stromelysin) (Homo sapiens, UniProt P08254). Nature of the assay: inhibition of MMP-3 hydrolysis of thiopeptolide substrate. The settings on record: thiopeptolide substrate, pH 6.0, 22° C.; read-out: (IC50) MMP-3. The text has this:
The assays measure the amount by which a test compound reduces the hydrolysis of a thiopeptolide substrate caused by a matrix metalloproteinase enzyme. Such assays are described in detail by Ye, et al., in Biochemistry, 1992;31(45):11231-11235).
Thiopeptolide substrates show virtually no decomposition or hydrolysis in the absence of a matrix metalloproteinase enzyme. A typical thiopeptolide substrate commonly utilized for assays is Ac-Pro-Leu-Gly-thioester-Len-Len-Gly-O Et. […] Assays are carried out with and without matrix metalloproteinase inhibitor compounds, and the amount of hydrolysis is compared for a determination of inhibitory activity of the test compounds.
In the table, MMP-1 refers to interstitial collagenase; MMP-2 refers to Gelatinase A; MMP-3 refers to stromelysin; MMP-7 refers to matrilysin; and MMP-13 refers to Collagenase 3.

The target of assay [1] is T1, full-length collagenase (FLC) (Homo sapiens, UniProt P03956).
T1 construct: full-length collagenase hydrolysis of thiopeptolide substrate (FLC)
T1 sequence (P03956 100-469): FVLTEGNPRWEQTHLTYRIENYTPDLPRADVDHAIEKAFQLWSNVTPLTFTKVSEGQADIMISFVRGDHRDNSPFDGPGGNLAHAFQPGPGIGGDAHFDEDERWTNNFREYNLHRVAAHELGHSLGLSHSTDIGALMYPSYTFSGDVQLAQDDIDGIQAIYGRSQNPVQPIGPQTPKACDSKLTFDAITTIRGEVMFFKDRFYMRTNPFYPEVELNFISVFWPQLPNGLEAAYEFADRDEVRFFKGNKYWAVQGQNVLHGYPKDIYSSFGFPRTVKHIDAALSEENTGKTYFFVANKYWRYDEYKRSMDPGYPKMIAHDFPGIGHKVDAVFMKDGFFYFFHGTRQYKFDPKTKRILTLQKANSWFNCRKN
Put plainly: inhibition of full-length collagenase hydrolysis of thiopeptolide substrate.
Excerpt: as §1
(§2) The compounds were additionally evaluated for their ability to inhibit full-length collagenase hydrolysis of thiopeptolide substrate (FLC) and full-length gelatinase B (FLGB) hydrolysis of thiopeptolide.

The target of a further assay is T2, MMP-2 (Gelatinase A) (Homo sapiens, UniProt P08253).
T2 sequence (P08253 110-660): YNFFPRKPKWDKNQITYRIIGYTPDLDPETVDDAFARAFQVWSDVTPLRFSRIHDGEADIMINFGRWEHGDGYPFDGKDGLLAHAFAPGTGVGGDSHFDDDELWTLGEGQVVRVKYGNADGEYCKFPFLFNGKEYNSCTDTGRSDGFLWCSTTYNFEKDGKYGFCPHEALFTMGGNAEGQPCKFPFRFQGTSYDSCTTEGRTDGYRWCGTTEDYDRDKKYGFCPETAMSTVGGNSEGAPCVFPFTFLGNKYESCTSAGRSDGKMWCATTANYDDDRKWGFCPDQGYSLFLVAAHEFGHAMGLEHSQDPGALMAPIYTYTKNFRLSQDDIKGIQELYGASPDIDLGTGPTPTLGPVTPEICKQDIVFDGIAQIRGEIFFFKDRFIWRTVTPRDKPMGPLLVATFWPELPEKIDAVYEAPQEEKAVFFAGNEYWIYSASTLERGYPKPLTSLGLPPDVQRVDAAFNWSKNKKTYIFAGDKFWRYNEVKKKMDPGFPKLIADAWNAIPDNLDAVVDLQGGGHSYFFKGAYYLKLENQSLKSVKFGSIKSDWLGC
Put plainly: inhibition of MMP-2 hydrolysis of thiopeptolide substrate. The conditions noted are these: thiopeptolide substrate, pH 6.0, 22° C.; read-out: (IC50) MMP-2.

The target of assay [2] is T3, full-length gelatinase B (FLGB) (Homo sapiens, UniProt P14780).
T3 construct: full-length gelatinase B (FLGB) hydrolysis of thiopeptolide
T3 sequence (P14780 94-707): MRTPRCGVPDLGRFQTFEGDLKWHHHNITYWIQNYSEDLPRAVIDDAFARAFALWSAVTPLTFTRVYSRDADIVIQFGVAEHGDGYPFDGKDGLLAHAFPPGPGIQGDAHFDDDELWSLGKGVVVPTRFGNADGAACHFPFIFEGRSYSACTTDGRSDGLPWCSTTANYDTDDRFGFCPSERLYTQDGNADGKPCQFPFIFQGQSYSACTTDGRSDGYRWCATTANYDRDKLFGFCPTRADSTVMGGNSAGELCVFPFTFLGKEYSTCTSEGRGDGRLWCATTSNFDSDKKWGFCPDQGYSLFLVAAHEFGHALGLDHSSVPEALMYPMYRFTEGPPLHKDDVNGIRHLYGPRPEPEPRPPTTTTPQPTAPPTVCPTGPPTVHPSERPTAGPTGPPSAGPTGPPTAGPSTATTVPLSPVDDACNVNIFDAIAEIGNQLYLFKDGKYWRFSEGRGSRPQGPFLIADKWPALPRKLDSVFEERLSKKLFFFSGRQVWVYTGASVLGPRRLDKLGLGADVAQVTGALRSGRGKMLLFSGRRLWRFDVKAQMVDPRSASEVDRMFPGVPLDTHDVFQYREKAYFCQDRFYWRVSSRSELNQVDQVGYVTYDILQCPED
Put plainly: inhibition of full-length gelatinase B hydrolysis of thiopeptolide.
Excerpt: as §1, §2

Bounds are passed on as bounds.

MMP-3 (stromelysin), sequence (P08254 100-477): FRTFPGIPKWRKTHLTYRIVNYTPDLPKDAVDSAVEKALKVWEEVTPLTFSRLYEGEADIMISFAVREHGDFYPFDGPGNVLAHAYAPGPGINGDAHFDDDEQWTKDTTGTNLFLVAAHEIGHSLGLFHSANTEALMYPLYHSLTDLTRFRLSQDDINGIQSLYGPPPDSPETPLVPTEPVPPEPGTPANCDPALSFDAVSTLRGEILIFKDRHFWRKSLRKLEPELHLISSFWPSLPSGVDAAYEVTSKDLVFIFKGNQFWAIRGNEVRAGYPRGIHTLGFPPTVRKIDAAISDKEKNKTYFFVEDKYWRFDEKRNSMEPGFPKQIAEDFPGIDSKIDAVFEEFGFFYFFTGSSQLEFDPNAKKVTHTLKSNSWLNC

The IC50 is the concentration that gives 50% inhibition. In the case of `O=C(C[C@H](NC(=O)C(F)(F)F)C(=O)O)c1ccc2oc3ccccc3c2c1` [Example 1, (S)-4-Dibenzofuran-2-yl-4-oxo-2-(2,2,2-trifluoroacetylamino)-butyric acid], the IC50 is 2.8 µM at MMP-13 (Collagenase 3); 0.95 µM at MMP-3 (stromelysin); greater than 100 µM in assay [1]; 0.059 µM on MMP-2 (Gelatinase A); greater than 100 µM in assay [2].
